We go through five compounds from PubChem BioAssay AID1963852 (Molecular Pharmacology Branch, DTP, NCI, 2024).

This assay concerns 282377-053-R-J1-PDC complex spheroid viability. The assay can be described thus: Anticancer human tumor 282377-053-R-J1-PDC patient-derived colon adenocarcinoma cell line growth inhibition [POLQ]. As to conditions: for viability, T/C: stronger effect = lower value. The procedure: Multicellular complex tumor spheroid response to Polymerase (POL) inhibitors (novobiocin, ART-558, RP6685) in combination with a variety of drugs and investigational agents in selected tumor cell lines
The POL inhibitors (novobiocin, ART-558, and RP6685) were evaluated both individually and in combination with standard of care and investigational anticancer small molecules within a complex spheroid model of solid tumors. . Complex spheroids include a stromal component modeled by human endothelial cells (HUVEC) and fibroblasts modeled by human mesenchymal stem cells (MSCs). The concentration ranges selected for each drug and investigational agent were based upon clinically achievable concentrations if the clinical Cmax of the agent was known.
Compounds. The drugs and investigational agents: novobiocin (NSC847541), ART-558 (NSC835418), RP-6685 (NSC848927), peposertib (NSC802822), ceralasertib (NSC780249), elimusertib (NSC800525), camonsertib (NSC841442), AZD-1390 (NSC803789), olaparib (NSC753686), talazoparib (NSC767125), rucaparib (NSC756644), sotorasib (NSC818433), MRTX-1133 (NSC836407), SN-38 (NSC673596), topotecan (NSC609699), epotoside (NSC141540), doxorubicin (NSC123127), gemcitabine (NSC613327), 5-fluorouracil (NSC19893), paclitaxel (NSC125973), vemurafenib (NSC761431), MSA-2 (NSC828583), SN-011 (NSC837082), adavosertib (NSC754352), prexasertib (NSC758257), carboplatin (NSC241240) and oxaliplatin (NSC266046), were obtained from the National Cancer Institute (NCI) Developmental Therapeutics Program Chemical Repository (21). The FDA-approved anticancer drug set is available from the Developmental Therapeutics Program at https://dtp.cancer.gov/organization/dscb/obtaining/. […] The stock solutions were prepared in dimethyl sulfoxide (DMSO, Sigma-Aldrich, St. Louis, MO, cat. D2650), except for the platinum compounds which were prepared in saline (Quality Biological, Gaithersburg, MD, cat. 114-055-101), at 800-fold the tested concentration and stored at -70 degrees C prior to their use. All drugs and investigational agents were tested over a range starting from a high concentration at or near the clinical Cmax and decreasing in half-log increments. If the clinical Cmax for an agent had not been determined, the highest concentration tested was 10 microM, except for SN-38, which was tested at a high concentration of 1 microM.
Cell Culture. All cells were maintained in an incubator at 37 degrees C and 5% CO2 with 95% humidity. The PDC lines were cultured according to standard operating procedures established by the NCI PDMR (https://pdmr.cancer.gov). Table 3 of the manuscript, lists the cell lines along with the number of the three cell types plated to form the mct-spheroids and media for tumor cell growth. After thawing, all PDC lines, except 997537-175-T-J1-PDC and 415267-285-R-J2-PDC, were cultured in Matrigel-coated flasks prepared with a working solution of 1X Ham's F-12 nutrient mix, without supplementation (Thermo Fisher Scientific, cat. 11765054), 100 U/mL penicillin-streptomycin (Thermo Fisher Scientific, cat. 15140122), and 2.5% Matrigel (Corning Inc., Corning, NY, cat. 354248) for the first three passages. The two PDC lines 997537-175-T-J1-PDC and 415267-285-R-J2-PDC were cultured on uncoated flasks. The 857933-349-R-J2-PDC line was cultured in 6C/Colon 1B media containing advanced DMEM/F-12 (Thermo Fisher Scientific, cat. 12634028), 10 mM HEPES (Thermo Fisher Scientific, cat. 15630080), 1X GlutaMAX supplement (Thermo Fisher Scientific, cat. 35050061), 0.1 mg/mL primocin (InvivoGen, San Diego, CA, cat. ant-pm-2), 10% defined fetal bovine serum, heat inactivated (HyClone Laboratories Inc., Logan, UT, cat. SH30070.03HI), 50% L-WRN conditioned media (ATCC, cat. CRL-3276), 1.25 mM N-Acetyl-L-cysteine (Sigma-Aldrich, cat. A9165), 10 mM nicotinamide (Sigma-Aldrich, cat. N0636), 1X B-27 supplement (Thermo Fisher Scientific, cat. 17504044), 1X N-2 supplement (Thermo Fisher Scientific, cat. […]

[1] abbreviates: curve of first compound, second compound 0.0316 µM.
Where [2] appears, read: curve of first compound, second compound 0.1 µM.
The mark [3] stands for this setting: curve of first compound, second compound 0.316 µM.
Where [4] appears, read: curve of first compound, second compound 1 µM.
Setting [5] is: curve of first compound, second compound 3.16 µM.
The mark [6] stands for this setting: curve of first compound, second compound 10 µM.
Setting [7] is: second compound 0.0316 µM, first compound 0.0316 µM.
The mark [8] stands for this setting: second compound 0.0316 µM, first compound 0.1 µM.
[9] abbreviates: second compound 0.0316 µM, first compound 0.316 µM.
Setting [10] is: second compound 0.0316 µM, first compound 1 µM.
The mark [11] stands for this setting: second compound 0.0316 µM, first compound 3.16 µM.
The mark [12] stands for this setting: second compound 0.0316 µM, first compound 10 µM.
Where [13] appears, read: second compound 0.1 µM, first compound 0.0316 µM.
Where [14] appears, read: second compound 0.1 µM, first compound 0.1 µM.
Where [15] appears, read: second compound 0.1 µM, first compound 0.316 µM.
[16] abbreviates: second compound 0.1 µM, first compound 1 µM.
The mark [17] stands for this setting: second compound 0.1 µM, first compound 3.16 µM.
The mark [18] stands for this setting: second compound 0.1 µM, first compound 10 µM.
The mark [19] stands for this setting: second compound 0.316 µM, first compound 0.0316 µM.
[20] abbreviates: second compound 0.316 µM, first compound 0.1 µM.
[21] abbreviates: second compound 0.316 µM, first compound 0.316 µM.
Where [22] appears, read: second compound 0.316 µM, first compound 1 µM.
Where [23] appears, read: second compound 0.316 µM, first compound 3.16 µM.
Where [24] appears, read: second compound 0.316 µM, first compound 10 µM.
Setting [25] is: second compound 1 µM, first compound 0.0316 µM.
[26] abbreviates: second compound 1 µM, first compound 0.1 µM.
Setting [27] is: second compound 1 µM, first compound 0.316 µM.
[28] abbreviates: second compound 1 µM, first compound 1 µM.
Setting [29] is: second compound 1 µM, first compound 3.16 µM.
The mark [30] stands for this setting: second compound 1 µM, first compound 10 µM.
The mark [31] stands for this setting: second compound 3.16 µM, first compound 0.0316 µM.
Where [32] appears, read: second compound 3.16 µM, first compound 0.1 µM.
Where [33] appears, read: second compound 3.16 µM, first compound 0.316 µM.
Setting [34] is: second compound 3.16 µM, first compound 1 µM.
[35] abbreviates: second compound 3.16 µM, first compound 3.16 µM.
Setting [36] is: second compound 3.16 µM, first compound 10 µM.
Where [37] appears, read: second compound 10 µM, first compound 0.0316 µM.
Setting [38] is: second compound 10 µM, first compound 0.1 µM.
Where [39] appears, read: second compound 10 µM, first compound 0.316 µM.
Setting [40] is: second compound 10 µM, first compound 1 µM.
[41] abbreviates: second compound 10 µM, first compound 3.16 µM.
The mark [42] stands for this setting: second compound 10 µM, first compound 10 µM.

pIC50: −log10 of the molar value. Several values for one entry are separate records, joined by “and”; a condition that tells them apart may be missing. Equal entries are not always repeated.
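Also: spheroids exposed to compounds for seven days.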
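For viability, T/C in this document: 100% = DMSO vehicle control viability.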

As to `CC(=O)O[C@H]1C(=O)[C@@]2(C)[C@H]([C@H](OC(=O)c3ccccc3)[C@]3(O)C[C@H](OC(=O)[C@H](O)[C@@H](NC(=O)c4ccccc4)c4ccccc4)C(C)=C1C3(C)C)[C@]1(OC(C)=O)CO[C@@H]1C[C@@H]2O`, the viability, T/C was 93.6% and 91% and 48.6% (compound 0.00949 µM); 40.4% and 58.8% and 17.8% (compound 0.03 µM); 40.3% and 41.6% and 17.4% (compound 0.0949 µM); 42% and 47.9% and 19% (compound 0.3 µM); 42.7% and 50.8% and 21.5% (compound 0.949 µM); 47.6% and 61% and 28.4% (compound 3 µM).
Turning to `C#Cc1c(F)ccc2cc(O)cc(-c3ncc4c(N5CC6CCC(C5)N6)nc(OCC56CCCN5CC(F)C6)nc4c3F)c12` (centres undefined) + Nc1ccc(C#CCN(C(=O)Cc2ncc(C(F)(F)F)cc2C(F)(F)F)c2ccc(F)cc2)nn1, the negative logarithm of the IC50 (pIC50) under setting [1] is under 5.00; the pIC50 under setting [2] is under 5.00; the pIC50 under setting [3] was under 5.00; the pIC50 under setting [4] was under 5.00; the negative-log IC50 (pIC50) under setting [5] was under 5.00; the pIC50 under setting [6] is under 5.00. The viability, T/C runs as follows: under setting [7], 101%; under setting [8], 114%; under setting [9], 91.2%; under setting [10], 97.5%; under setting [11], 99.8%; under setting [12], 84.8%. Further, the viability, T/C under setting [13] is 99.8%; the viability, T/C under setting [14] was 108%; the viability, T/C under setting [15] was 83.5%; the viability, T/C under setting [16] is 116%; the viability, T/C under setting [17] was 99.5%; the viability, T/C under setting [18] is 79.6%. In addition, the viability, T/C was 97.1% under setting [19]; 106% under setting [20]; 94.9% under setting [21]; 85.2% under setting [22]; 118% under setting [23]; 110% under setting [24]. Also, the viability, T/C is 93% under setting [25]; 121% under setting [26]; 105% under setting [27]; 92.7% under setting [28]; 94.7% under setting [29]; 96.8% under setting [30]. Moreover, the viability, T/C runs as follows: under setting [31], 121%; under setting [32], 120%; under setting [33], 94%; under setting [34], 107%; under setting [35], 90.2%; under setting [36], 96.3%. The viability, T/C is, setting by setting: under setting [37], 117%; under setting [38], 107%; under setting [39], 109%; under setting [40], 112%; under setting [41], 90.8%; under setting [42], 119%.
For `CC1COCCN1c1cc(-c2ccnn2C)c2ccnc(-c3ccn[nH]3)c2n1` (centres undefined), the viability, T/C by setting is: (compound 0.0316 µM) 93.1% and 105% and 77.6%; (compound 0.1 µM) 67.1% and 76.9% and 73.5%; (compound 0.316 µM) 55.3% and 44.6% and 61.7%; (compound 1 µM) 37.6% and 31.7% and 57.4%; (compound 3.16 µM) 35.6% and 27.5% and 46%; (compound 10 µM) 25.1% and 22.8% and 38.4%. For the same compound, the pIC50 (curve of compound) is 6.39 and 6.57 and 5.68.
On to `O=C(Nc1ccc(O)c(NS(=O)(=O)c2ccc(F)cc2)c1)c1ccc(-c2ccccc2)cc1` + Cc1cccc(N(C)C(=O)C2C(O)CCN2c2nc(C)cc(C(F)(F)F)c2C#N)c1, for which the pIC50 was under 5.00 under setting [1]; under 5.00 under setting [2]; under 5.00 under setting [3]; under 5.00 under setting [4]; under 5.00 under setting [5]; under 5.00 under setting [6]. The viability, T/C is 122% under setting [7]; 119% under setting [8]; 98.4% under setting [9]; 102% under setting [10]; 107% under setting [11]; 116% under setting [12]. In addition, the viability, T/C was 106% under setting [13]; 117% under setting [14]; 99.5% under setting [15]; 108% under setting [16]; 124% under setting [17]; 118% under setting [18]. For the same compound, the viability, T/C is, setting by setting: under setting [19], 104%; under setting [20], 107%; under setting [21], 106%; under setting [22], 103%; under setting [23], 116%; under setting [24], 120%. The viability, T/C under setting [25] was 106%; the viability, T/C under setting [26] is 110%; the viability, T/C under setting [27] was 99.8%; the viability, T/C under setting [28] is 109%; the viability, T/C under setting [29] is 117%; the viability, T/C under setting [30] is 119%. For the same compound, the viability, T/C runs as follows: under setting [31], 112%; under setting [32], 118%; under setting [33], 104%; under setting [34], 108%; under setting [35], 126%; under setting [36], 115%. For the same compound, the viability, T/C is, setting by setting: under setting [37], 106%; under setting [38], 105%; under setting [39], 99.7%; under setting [40], 97%; under setting [41], 106%; under setting [42], 115%.
Turning to `O=c1[nH]cc(F)c(=O)[nH]1`, the viability, T/C by setting is: (compound 0.0316 µM) 91.8% and 103% and 97.7%; (compound 0.1 µM) 109% and 108% and 95%; (compound 0.316 µM) 86.7% and 107% and 114%; (compound 1 µM) 96.3% and 108% and 78.9%; (compound 3.16 µM) 68.2% and 98.1% and 75.9%; (compound 10 µM) 71% and 93.2% and 71.8%. Also, for the setting “curve of compound”, the pIC50 was under 5.00.
